# Like-named read-outs stand apart in the source and are kept apart here. *1 amine or outer side, *2 acyl side, *3 side chain or, on linkers, in order; H or OH if unused. Where a SMILES comes first, the peptide text is derived from it. Bridges are numbered along the chain shown (N, C = ends). [ ]: non-standard residue; d: D form. CH2CONH(CH2)4NHCOCH2 = O=C(C[*:1])NCCCCNC(=O)C[*:2]; CH2CONHCH2CH2NHCOCH2 = O=C(C[*:1])NCCNC(=O)C[*:2]; X1 = O=C(c1ccc(C[*:1])cc1)c1ccc(C[*:2])cc1
# Legend:
# [1] = molecular target: T1, human glucagon-like peptide 1 receptor (GLP-1R) (Homo sapiens, UniProt P43220); experiment: cell-based
# T1 construct: expressed in transfected cells
# Procedure: (§1) HEK293 cells were infected with lent virus encoding firefly luciferase gene under the control of CRE promoter, as described in the manual (Qiagen, Netherlands) and then were selected using 1 μg/mL puromycin (Life technologies, Carlsbad) for 1 week. The survived cells were named as CRE-HEK293, expanded and then transfected with a G418 selective mammalian expression plasmid encoding human GCGR, GLP-1R, GIPR or GLP-2R. In brief, GCGR, GLP-1R, GIPR, or GLP-2R plasmid was transfected into CRE-HEK293 cells using Lipofectamine 2000 and selected with 400 μg/mL geneticin (Life technologies, Carlsbad, Calif.). Single colony stable cell lines overexpressing both CRE-luciferase and GCGR, GLP-1R, GIPR, or GLP-2R were then established for in vitro activity assays. These four stable cell lines were named as HEK293-GCGR-CRE, HEK293-GLP-1R-CRE, HEK293-GIPR-CRE, and HEK293-GLP-2R-CRE.
# (§2) Cells were treated with different peptides in a dose dependent manner. On the next day, 10 μl of Bright-Glo reagent (Promega, Madison, Wis.) were added into each well and firefly luminescence was determined using an Envision multilabel plate reader (PerkinElmer, Waltham, Mass.). EC50 of each peptide was calculated using GraphPad Prism 6 software (GraphPad, San Diego, Calif.).
# [2] = molecular target: T2, human glucagon receptor (GCGR) (Homo sapiens, UniProt P47871); experiment: GCGR CRE luciferase assay (receptor-mediated cAMP synthesis); format: cell-based
# T2 construct: expressed in transfected cells
# Procedure: (§3) CREB responsive luciferase stable HEK 293 cell line overexpressing human glucagon receptor (GCGR), glucagon-like peptide 1 receptor (GLP-1R), Glucose-dependent insulinotropic polypeptide receptor (GIPR), or Glucagon-like peptide 2 receptor (GLP-2R) was generated as follows.
# as §1
# as §2, with “HEK293-GCGR-CRE, HEK293-GLP-1R-CRE, HEK293-GIPR-CRE, and HEK293-GLP-2R-CRE cells were seeded in a white 384-well plate at a density of 5,000 cells per well and cultured for 24 hours. Cells” for “Cells”
# [3] = molecular target: T3, human Glucose-dependent insulinotropic polypeptide receptor (GIPR) (Homo sapiens, UniProt P48546); experiment: GIPR CRE luciferase assay (receptor-mediated cAMP synthesis); format: cell-based
# T3 construct: expressed in transfected cells
# T3 sequence (P48546 22-466): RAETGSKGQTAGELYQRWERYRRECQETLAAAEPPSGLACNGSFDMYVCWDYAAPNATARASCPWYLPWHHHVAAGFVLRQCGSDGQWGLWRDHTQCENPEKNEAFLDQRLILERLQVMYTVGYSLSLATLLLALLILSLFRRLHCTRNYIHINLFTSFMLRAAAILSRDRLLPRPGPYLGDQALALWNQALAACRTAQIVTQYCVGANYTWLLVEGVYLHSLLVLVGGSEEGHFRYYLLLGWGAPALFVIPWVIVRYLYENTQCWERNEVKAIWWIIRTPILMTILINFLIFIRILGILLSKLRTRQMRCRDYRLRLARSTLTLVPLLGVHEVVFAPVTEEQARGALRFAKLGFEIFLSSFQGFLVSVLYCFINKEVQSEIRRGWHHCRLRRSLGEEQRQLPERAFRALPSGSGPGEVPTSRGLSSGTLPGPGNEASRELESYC
# Procedure: as §3
# as §1, with “Single colony stable cell lines overexpressing both CRE-luciferase and GCGR, GLP-1R, GIPR, or GLP-2R were then established for in vitro activity assays. These four stable cell lines were named as HEK293-GCGR-CRE, HEK293-GLP-1R-CRE, HEK293-GIPR-CRE, and HEK293-GLP-2R-CRE.” left out
# as §2, with “HEK293-GCGR-CRE, HEK293-GLP-1R-CRE, HEK293-GIPR-CRE, and HEK293-GLP-2R-CRE cells” for “Cells”, “seeded” for “treated with different peptides”, “white 384-well plate at a density of 5,000 cells per well and cultured for 24 hours. […]” for “dose dependent manner.”
# [4] = HEK293-GLP-1R-CRE cells, luciferase readout, Table 6, read-out: GLP-1R (EC50)
# T1 sequence (P43220 24-463): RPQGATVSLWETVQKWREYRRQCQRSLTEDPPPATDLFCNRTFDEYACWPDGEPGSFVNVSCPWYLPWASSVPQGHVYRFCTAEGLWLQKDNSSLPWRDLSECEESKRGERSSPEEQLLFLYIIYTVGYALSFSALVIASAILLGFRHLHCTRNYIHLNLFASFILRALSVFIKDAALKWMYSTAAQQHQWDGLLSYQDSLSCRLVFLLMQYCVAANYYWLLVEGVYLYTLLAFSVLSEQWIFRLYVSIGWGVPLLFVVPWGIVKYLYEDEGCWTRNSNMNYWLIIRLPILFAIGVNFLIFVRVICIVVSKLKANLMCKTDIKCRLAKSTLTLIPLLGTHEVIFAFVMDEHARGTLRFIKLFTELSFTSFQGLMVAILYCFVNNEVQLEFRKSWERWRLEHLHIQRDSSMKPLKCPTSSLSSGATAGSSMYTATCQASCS
# T2 sequence (P47871 26-477): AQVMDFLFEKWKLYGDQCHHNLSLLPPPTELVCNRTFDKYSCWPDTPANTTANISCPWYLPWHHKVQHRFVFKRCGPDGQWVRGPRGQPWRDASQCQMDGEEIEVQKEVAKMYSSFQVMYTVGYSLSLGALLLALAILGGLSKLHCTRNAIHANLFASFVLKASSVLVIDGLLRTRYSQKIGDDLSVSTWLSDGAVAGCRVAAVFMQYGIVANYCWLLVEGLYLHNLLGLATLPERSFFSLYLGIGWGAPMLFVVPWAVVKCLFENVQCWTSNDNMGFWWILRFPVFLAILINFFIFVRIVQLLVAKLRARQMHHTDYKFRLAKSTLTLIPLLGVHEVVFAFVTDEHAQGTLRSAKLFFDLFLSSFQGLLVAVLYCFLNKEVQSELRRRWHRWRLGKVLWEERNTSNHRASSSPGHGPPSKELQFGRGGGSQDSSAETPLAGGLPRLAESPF
SMILES,"EC50 [1, 4] [nM]",EC50 [2] [nM],EC50 [3] [nM],EC50 [1] [nM],"EC50 ([3]; HEK293-GIPR-CRE cells, luciferase readout, Table 8, read-out: GIP-R (EC50)) [nM]","EC50 ([1]; HEK293-GLP-1R-CRE cells, luciferase readout, Table 8, read-out: GLP-1R (EC50)) [nM]"
CC[C@H](C)[C@H](NC(=O)[C@H](CC(N)=O)NC(=O)[C@H](CC(N)=O)NC(=O)[C@H](CCCNC(=N)N)NC(=O)[C@H](CC(N)=O)NC(=O)[C@H](CCCNC(=N)N)NC(=O)[C@H](CCCCN)NC(=O)[C@@H](NC(=O)[C@H](CC(N)=O)NC(=O)[C@H](CCSC)NC(=O)[C@H](CC(C)C)NC(=O)[C@H](Cc1c[nH]c2ccccc12)NC(=O)[C@@H]1CSCc2ccc(cc2)C(=O)c2ccc(cc2)CSC[C@H](NC(=O)[C@H](CCC(=O)O)NC(=O)[C@H](CC(=O)O)NC(=O)[C@H](CC(C)C)NC(=O)[C@H](Cc2ccc(O)cc2)NC(=O)[C@H](CCCCN)NC(=O)[C@H](CO)NC(=O)[C@H](Cc2ccc(O)cc2)NC(=O)[C@H](CC(=O)O)NC(=O)[C@H](CO)NC(=O)[C@@H](NC(=O)[C@H](Cc2ccccc2)NC(=O)[C@@H](NC(=O)CNC(=O)[C@H](CCC(N)=O)NC(=O)[C@@H](CO)NC(=O)[C@@H](N)Cc2c[nH]cn2)[C@@H](C)O)[C@@H](C)O)C(=O)N[C@@H](C)C(=O)N[C@@H](C)C(=O)N[C@@H](CCCCN)C(=O)N[C@@H](CCC(=O)O)C(=O)N[C@@H](Cc2ccccc2)C(=O)N[C@@H]([C@@H](C)CC)C(=O)N1)[C@@H](C)O)C(=O)N[C@@H](C)C(N)=O [mTA21] (H-H[dS]QGTFTSDYSKYLDECAAKEFICWLMNTKRNRNNIA-NH2; linker 17-24 via X1),0.12,0.7,–,–,–,–
CC[C@H](C)[C@H](NC(=O)[C@H](CC(N)=O)NC(=O)[C@H](CC(N)=O)NC(=O)[C@H](CCCNC(=N)N)NC(=O)[C@H](CC(N)=O)NC(=O)[C@H](CCCNC(=N)N)NC(=O)[C@H](CCCCN)NC(=O)[C@@H](NC(=O)[C@H](CC(N)=O)NC(=O)[C@H](CCSC)NC(=O)[C@H](CC(C)C)NC(=O)[C@H](Cc1c[nH]c2ccccc12)NC(=O)[C@@H]1CSCC(=O)NCCNC(=O)CSC[C@H](NC(=O)[C@H](CCC(=O)O)NC(=O)[C@H](CC(=O)O)NC(=O)[C@H](CC(C)C)NC(=O)[C@H](Cc2ccc(O)cc2)NC(=O)[C@H](CCCCN)NC(=O)[C@H](CO)NC(=O)[C@H](Cc2ccc(O)cc2)NC(=O)[C@H](CC(=O)O)NC(=O)[C@H](CO)NC(=O)[C@@H](NC(=O)[C@H](Cc2ccccc2)NC(=O)[C@@H](NC(=O)CNC(=O)[C@H](CCC(N)=O)NC(=O)[C@@H](CO)NC(=O)[C@@H](N)Cc2c[nH]cn2)[C@@H](C)O)[C@@H](C)O)C(=O)N[C@@H](C)C(=O)N[C@@H](C)C(=O)N[C@@H](CCCCN)C(=O)N[C@@H](CCC(=O)O)C(=O)N[C@@H](Cc2ccccc2)C(=O)N[C@@H]([C@@H](C)CC)C(=O)N1)[C@@H](C)O)C(=O)N[C@@H](C)C(N)=O [mTA24] (H-H[dS]QGTFTSDYSKYLDECAAKEFICWLMNTKRNRNNIA-NH2; linker 17-24 via CH2CONHCH2CH2NHCOCH2),0.2,3,–,–,–,–
CC[C@H](C)[C@@H]1NC(=O)[C@H](Cc2ccccc2)NC(=O)[C@H](CCC(=O)O)NC(=O)[C@H](CCCCN)NC(=O)[C@H](C)NC(=O)[C@H](C)NC(=O)[C@@H](NC(=O)[C@H](CCC(=O)O)NC(=O)[C@H](CC(=O)O)NC(=O)[C@H](CC(C)C)NC(=O)[C@H](Cc2ccc(O)cc2)NC(=O)[C@H](CCCCN)NC(=O)[C@H](CO)NC(=O)[C@H](Cc2ccc(O)cc2)NC(=O)[C@H](CC(=O)O)NC(=O)[C@H](CO)NC(=O)[C@@H](NC(=O)[C@H](Cc2ccccc2)NC(=O)[C@@H](NC(=O)CNC(=O)[C@H](CCC(N)=O)NC(=O)[C@@H](CO)NC(=O)[C@@H](N)Cc2c[nH]cn2)[C@@H](C)O)[C@@H](C)O)CSCC(=O)NCCCCNC(=O)CSC[C@@H](C(=O)N[C@@H](Cc2c[nH]c3ccccc23)C(=O)N[C@@H](CC(C)C)C(=O)N[C@@H](CC(C)C)C(=O)N[C@@H](CCCNC(=N)N)C(=O)N[C@@H](C)C(N)=O)NC1=O [mTA29] (H-H[dS]QGTFTSDYSKYLDECAAKEFICWLLRA-NH2; linker 17-24 via CH2CONH(CH2)4NHCOCH2),0.03,0.03,–,–,–,–
CC[C@H](C)[C@H](NC(=O)[C@H](CO)NC(=O)[C@H](Cc1ccc(O)cc1)NC(=O)[C@H](CC(=O)O)NC(=O)[C@H](CO)NC(=O)[C@@H](NC(=O)[C@H](Cc1ccccc1)NC(=O)[C@@H](NC(=O)CNC(=O)[C@H](CCC(=O)O)NC(=O)[C@@H](C)NC(=O)[C@@H](N)Cc1ccc(O)cc1)[C@@H](C)O)[C@@H](C)O)C(=O)N[C@@H](Cc1ccc(O)cc1)C(=O)N[C@@H](CC(C)C)C(=O)N[C@@H](CC(=O)O)C(=O)N[C@@H](CCCCN)C(=O)N[C@H]1CSCC(=O)NCCCCNC(=O)CSC[C@@H](C(=O)N[C@@H](Cc2c[nH]c3ccccc23)C(=O)N[C@@H](CC(C)C)C(=O)N[C@@H](CC(C)C)C(=O)N[C@@H](C)C(=O)NCC(=O)NCC(=O)N2CCC[C@H]2C(=O)N[C@@H](CO)C(=O)N[C@@H](CO)C(=O)NCC(=O)N[C@@H](C)C(=O)N2CCC[C@H]2C(=O)N2CCC[C@H]2C(=O)N2CCC[C@H]2C(=O)N[C@@H](CO)C(=O)N[C@@H](CCCCN)C(N)=O)NC(=O)[C@H](C(C)C)NC(=O)[C@H](Cc2ccccc2)NC(=O)[C@H](CCC(=O)O)NC(=O)[C@H](CCCCN)NC(=O)[C@H](C)NC(=O)[C@H](C)NC1=O [mTA40] (H-Y[dA]EGTFTSDYSIYLDKCAAKEFVCWLLAGGPSSGAPPPSK-NH2; linker 17-24 via CH2CONH(CH2)4NHCOCH2),–,–,0.02,0.02,–,–
CC[C@H](C)[C@H](NC(=O)[C@H](CC(N)=O)NC(=O)[C@H](CC(N)=O)NC(=O)[C@H](CCCNC(=N)N)NC(=O)[C@H](CC(N)=O)NC(=O)[C@H](CCCNC(=N)N)NC(=O)[C@H](CCCCN)NC(=O)[C@@H](NC(=O)[C@H](CC(N)=O)NC(=O)[C@H](CCSC)NC(=O)[C@H](CC(C)C)NC(=O)[C@H](Cc1c[nH]c2ccccc12)NC(=O)[C@@H]1CSCC(=O)NCCCCNC(=O)CSC[C@H](NC(=O)[C@H](CCC(=O)O)NC(=O)[C@H](CC(=O)O)NC(=O)[C@H](CC(C)C)NC(=O)[C@H](Cc2ccc(O)cc2)NC(=O)[C@H](CCCCN)NC(=O)[C@H](CO)NC(=O)[C@H](Cc2ccc(O)cc2)NC(=O)[C@H](CC(=O)O)NC(=O)[C@H](CO)NC(=O)[C@@H](NC(=O)[C@H](Cc2ccccc2)NC(=O)[C@@H](NC(=O)CNC(=O)[C@H](CCC(=O)O)NC(=O)[C@@H](C)NC(=O)[C@@H](N)Cc2ccc(O)cc2)[C@@H](C)O)[C@@H](C)CC)C(=O)N[C@@H](C)C(=O)N[C@@H](C)C(=O)N[C@@H](CCCCN)C(=O)N[C@@H](CCC(=O)O)C(=O)N[C@@H](Cc2ccccc2)C(=O)N[C@@H]([C@@H](C)CC)C(=O)N1)[C@@H](C)O)C(=O)N[C@@H](C)C(N)=O [mTA44] (H-Y[dA]EGTFISDYSKYLDECAAKEFICWLMNTKRNRNNIA-NH2; linker 17-24 via CH2CONH(CH2)4NHCOCH2),–,1.6,–,–,0.04,9.7

# Reference: patent US10010589B2, “Modified therapeutic agents, stapled peptide lipid conjugates, and compositions thereof” (priority 2013, dated 2018)
